Source: article PMC10770148, “Transport and inhibition mechanism for VMAT2-mediated synaptic vesicle loading of monoamines” (Cell Research, 2024)
Like-named read-outs stand apart in the source and are kept apart here. Each block holds one compound with its values, some of them ahead of it.

Key:
VMAT2 and VMAT1 = test system: VMAT2 and VMAT1; set-up: method as in PMID 8643547; settings: cited from earlier work
VMAT2 E312A = test: MST binding to VMAT2 E312A mutant; set-up: species or system human; settings: E312A versus WT, MST (Fig. S9a)
Description: (§1) The eGFP-tagged full-length VMAT2 or VMAT2 mutants was purified by size exclusion chromatography in the assay buffer (50 mM HEPES, 150 mM NaCl, 0.01% DDM, 0.001% CHS, pH 7.4) as described but without cleavage. Peak fractions were pooled and diluted to 40 nM. […] For MST measurements, a series of 16 sequential 1:1 dilutions were prepared using assay buffer for each ligand, and each ligand dilution was mixed 1:1 with diluted protein to final protein concentration of 20 nM and final ligand concentrations in the μM to nM range. The samples were incubated for 10 min at room temperature, and then loaded into Standard Monolith Capillaries (Cat# MO-K022, NanoTemper Technologies). Measurements were carried out with a Monolith NT.115 device at 80% LED power and 40% MST power. Kd was determined using the MO. Affinity Analysis software (version 2.3, NanoTemper Technologies, Germany) is with the Kd fit function. Capillaries displaying aggregation or adsorption were excluded. Data of at least three independently pipetted measurements were analyzed and Kd is expressed as mean ± SEM. Binding curves were plotted by GraphPad Prism Prism 9.5.1 (GraphPad Software Inc., San Diego, USA).

VMAT2_WT = VMAT2_WT (Homo sapiens, UniProt Q05940); test: MST binding to WT VMAT2
Chain of VMAT2_WT (Q05940 whole entry): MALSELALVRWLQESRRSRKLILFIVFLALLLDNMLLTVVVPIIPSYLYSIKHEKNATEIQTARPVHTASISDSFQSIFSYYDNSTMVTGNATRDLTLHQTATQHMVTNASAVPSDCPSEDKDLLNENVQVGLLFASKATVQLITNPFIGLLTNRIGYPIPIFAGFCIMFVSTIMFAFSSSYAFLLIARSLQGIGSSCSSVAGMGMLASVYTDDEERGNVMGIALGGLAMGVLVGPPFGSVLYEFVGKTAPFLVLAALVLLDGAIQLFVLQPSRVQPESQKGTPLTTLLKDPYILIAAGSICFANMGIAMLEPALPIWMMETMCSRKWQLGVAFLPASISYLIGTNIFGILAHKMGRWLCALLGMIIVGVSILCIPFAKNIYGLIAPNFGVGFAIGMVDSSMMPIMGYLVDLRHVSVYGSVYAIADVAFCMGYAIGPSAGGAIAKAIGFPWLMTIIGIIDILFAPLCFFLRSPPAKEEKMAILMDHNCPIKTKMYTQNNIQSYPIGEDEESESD
Description: as §1

[1] = biological target: T1, VMAT2 Leu124 and Leu125 mutant (Homo sapiens, UniProt Q05940, L124R/L125R); test: MST binding to VMAT2 Leu124/Leu125 mutant; settings: MST (Fig. S9a), versus WT
T1 construct: The eGFP-tagged full-length VMAT2 or VMAT2 mutants was purified by size exclusion chromatography; made in house; host or cells: Expi293 cells
T1 sequence (Q05940 whole entry L124R/L125R): as the sequence (Q05940 whole entry) above, with L124R, L125R counted along it
Description: as §1

VMAT2 L37F = biological target: T2, VMAT2 L37F (Homo sapiens, UniProt Q05940, L37F); test: MST binding to VMAT2 L37F mutant
T2 construct: The eGFP-tagged full-length VMAT2 or VMAT2 mutants was purified by size exclusion chromatography; made in house; host or cells: Expi293 cells
T2 sequence (Q05940 whole entry L37F): as the sequence (Q05940 whole entry) above, with L37F counted along it
Description: as §1

VMAT2 N34A = test: MST binding to VMAT2 N34A mutant; set-up: species or system human; settings: N34A versus WT
Description: as §1

VMAT1 = test system: VMAT1; set-up: method as in PMID 23506877; settings: cited from earlier work
VMAT1_WT = biological target: T3, VMAT1_WT (Homo sapiens, UniProt P54219); test: MST binding to WT VMAT1
T3 sequence (P54219 1-525): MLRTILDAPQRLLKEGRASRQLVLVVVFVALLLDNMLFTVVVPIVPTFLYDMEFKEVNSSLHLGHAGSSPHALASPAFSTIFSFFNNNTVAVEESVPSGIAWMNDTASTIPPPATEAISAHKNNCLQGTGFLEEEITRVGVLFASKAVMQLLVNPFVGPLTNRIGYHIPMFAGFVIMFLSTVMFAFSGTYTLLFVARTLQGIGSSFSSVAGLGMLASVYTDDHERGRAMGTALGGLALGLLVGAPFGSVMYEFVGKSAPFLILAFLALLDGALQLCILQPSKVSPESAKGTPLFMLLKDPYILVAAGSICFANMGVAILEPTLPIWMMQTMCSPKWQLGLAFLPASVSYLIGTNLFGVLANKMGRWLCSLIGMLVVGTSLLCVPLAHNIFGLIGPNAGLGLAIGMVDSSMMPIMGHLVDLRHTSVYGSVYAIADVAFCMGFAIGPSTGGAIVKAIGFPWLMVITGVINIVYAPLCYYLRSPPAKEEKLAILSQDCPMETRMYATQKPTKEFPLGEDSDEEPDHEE

VMAT2 W318A = biological target: T4, VMAT2 W318A (Homo sapiens, UniProt Q05940, W318A); test: MST binding to VMAT2 W318A mutant; settings: MST (Fig. S9a), versus WT
T4 construct: The eGFP-tagged full-length VMAT2 or VMAT2 mutants was purified by size exclusion chromatography; made in house; host or cells: Expi293 cells
T4 sequence (Q05940 whole entry W318A): as the sequence (Q05940 whole entry) above, with W318A counted along it
Description: as §1

VMAT2 = test system: VMAT2; set-up: method as in PMID 23506877; settings: cited from earlier work
VMAT2 V232L = biological target: T5, VMAT2 V232L (Homo sapiens, UniProt Q05940, V232L); test: MST binding to VMAT2 V232L mutant; settings: V232L variant, mean ± SEM
T5 construct: The eGFP-tagged full-length VMAT2 or VMAT2 mutants was purified by size exclusion chromatography; made in house; host or cells: Expi293 cells
T5 sequence (Q05940 whole entry V232L): as the sequence (Q05940 whole entry) above, with V232L counted along it
Description: as §1

VMAT2 I308V = biological target: T6, VMAT2 I308V (Homo sapiens, UniProt Q05940, I308V); test: MST binding to VMAT2 I308V mutant; settings: I308V variant, mean ± SEM
T6 construct: The eGFP-tagged full-length VMAT2 or VMAT2 mutants was purified by size exclusion chromatography; made in house; host or cells: Expi293 cells
T6 sequence (Q05940 whole entry I308V): as the sequence (Q05940 whole entry) above, with I308V counted along it
Description: as §1

VMAT2 Y433F = biological target: T7, VMAT2 Y433F (Homo sapiens, UniProt Q05940, Y433F); test: MST binding to VMAT2 Y433F mutant; settings: Y433F variant, mean ± SEM
T7 construct: The eGFP-tagged full-length VMAT2 or VMAT2 mutants was purified by size exclusion chromatography; made in house; host or cells: Expi293 cells
T7 sequence (Q05940 whole entry Y433F): as the sequence (Q05940 whole entry) above, with Y433F counted along it
Description: as §1

SMILES: O=C(c1ccc(F)cc1)C1CCN(CCn2c(=O)[nH]c3ccccc3c2=O)CC1 [ketanserin]
affinity or preference VMAT2 versus VMAT1 (VMAT2 and VMAT1): slight preference for VMAT2 over VMAT1

decrease in TBZ binding affinity, E312A mutant (VMAT2 E312A): 8 fold | Kd (VMAT2_WT; MST, VMAT2 WT, mean ± SEM, n = 3–4, read-out: Kd): 60 nM | TBZ association, Leu124 and Leu125 perturbations [1]: largely diminished TBZ association | reduction of TBZ binding by L37F variant (VMAT2 L37F; L37F versus WT VMAT2, MST): 45 fold | Kd (VMAT2 L37F; MST, L37F variant, mean ± SEM): 2780 ± 1080 nM | reduction in TBZ binding affinity, N34A substitution (VMAT2 N34A): 7 fold | difference in affinity between VMAT2 and VMAT1 (VMAT1_WT; 60 nM vs 9.38 μM): ~150 fold | Kd (VMAT1_WT; VMAT1 WT, mean ± SEM): 9380 nM | TBZ binding, W318A mutant (VMAT2 W318A): substantial reduction in TBZ binding | Kd (VMAT2 V232L): 22900 ± 20000 nM | Kd (VMAT2 I308V): 168 ± 103 nM | Kd (VMAT2 Y433F): 437 ± 141 nM
SMILES: COc1cc2c(cc1OC)C1CC(=O)C(CC(C)C)CN1CC2 (stereo not drawn) [TBZ, tetrabenazine]
IC50 difference VMAT2 versus VMAT1 (VMAT1; 0.3 μM vs 3 μM): 10 fold | IC50 (VMAT1; VMAT1): 3000 nM | affinity or preference VMAT2 versus VMAT1 (VMAT2 and VMAT1): selectively target VMAT2 | IC50 (VMAT2): […]

SMILES: NCCc1c[nH]cn1 [histamine]
higher affinity of VMAT2 than VMAT1 (VMAT2 and VMAT1; substrates): 30 fold

SMILES: COC(=O)[C@H]1[C@H]2C[C@@H]3c4[nH]c5cc(OC)ccc5c4CCN3C[C@H]2C[C@@H](OC(=O)c2cc(OC)c(OC)c(OC)c2)[C@@H]1OC [RES, reserpine]
affinity or preference VMAT2 versus VMAT1 (VMAT2 and VMAT1): slight preference for VMAT2 over VMAT1

Kd (VMAT2_WT): 3300 ± 1010 nM | Kd (VMAT2 Y433F): 3440 ± 1130 nM
SMILES: NCCc1c[nH]c2ccc(O)cc12 [5-HT, serotonin]
